Among the data in patent US20210094954A1, “PREPARATION METHODS AND APPLICATIONS OF 3,5-DISUBSTITUTED METHYLPYRAZOLO[1,5-A]PYRIMIDINE-7-HYDROXYLIC SALTS” (priority 2019, published 2021) are MIC values, retold here.

Where two headings read alike, the source gives them in different places.

What all share (type): cell-based
Assay [1] has as its system Enterococcus faecalis 29212. The assay can be described thus: microbe, parasite or virus in culture. Particulars: Enterococcus faecalis, 29212; 37° C., 24 hours; read-out: MIC values of in vitro antibacterial test results.
Assay [2] concerns Bacillus cereus 2. The assay can be described thus: microbe, parasite or virus in culture. Particulars: Bacillus cereus, 2; 37° C., 24 hours; read-out: MIC values of in vitro antibacterial test results.
Assay [3] has as its system Clostridium perfringens. The assay can be described thus: microbe, parasite or virus in culture. Particulars: Clostridium perfringens, 24 h, read-out: MIC values of in vitro antibacterial test results.
Assay [4] relates to Enterococcus faecalis F2518(VRE). The assay can be described thus: microbe, parasite or virus in culture. The note with it: Enterococcus faecalis, VRE, 24 h, read-out: MIC values of in vitro antibacterial test results.
Assay [5] concerns Diphtheria bacilli. The assay can be described thus: organism not typed. The note with it: 37° C., 24 hours; read-out: MIC values of in vitro antibacterial test results.
Assay [6] relates to Bacillus anthracis Bacillus 1. The assay can be described thus: microbe, parasite or virus in culture. Particulars: Bacillus anthracis, 24 h, read-out: MIC values of in vitro antibacterial test results.
For assay [7], the system named is Streptococcus agalactia B group. The assay can be described thus: microbe, parasite or virus in culture. Particulars: Streptococcus; 37° C., 24 hours; read-out: MIC values of in vitro antibacterial test results.
For assay [8], the system named is Streptococcus pneumoniae M2. The assay can be described thus: microbe, parasite or virus in culture. The note with it: Streptococcus pneumoniae, M2; 37° C., 24 hours; read-out: MIC values of in vitro antibacterial test results.
Assay [9] deals with Bacillus subtilis 168. The assay can be described thus: microbe, parasite or virus in culture. The note with it: Bacillus subtilis, 168; 37° C., 24 hours; read-out: MIC values of in vitro antibacterial test results.
Assay [10] concerns Peel fungus. The assay can be described thus: organism not typed. The note with it: 37° C., 24 hours; read-out: MIC values of in vitro antibacterial test results.
Assay [11] relates to Streptococcus pneumoniae 6303 (PRSP). The assay can be described thus: microbe, parasite or virus in culture. Particulars: Streptococcus pneumoniae, PRSP, 24 h, read-out: MIC values of in vitro antibacterial test results.
Assay [12] deals with F2518(VRE), Staphylococcus aureus resistant strain 43300(MRSA), 703 (MRSA), pneumococcal resistance bacteria 6303(PRSP). The assay can be described thus: microbe, parasite or virus in culture. The note with it: read-out: MIC values (μM).
In assay [13] the test system is Oral Candida. The assay can be described thus: microbe, parasite or virus in culture. The note with it: Candida.
Assay [14] concerns Staphylococcus aureus 43300(MRSA). The assay can be described thus: microbe, parasite or virus in culture. The note with it: Staphylococcus aureus, MRSA, 24 h, read-out: MIC values of in vitro antibacterial test results.
For assay [15], the system named is Staphylococcus aureus 29231. The assay can be described thus: microbe, parasite or virus in culture. Particulars: Staphylococcus aureus, 29231; 37° C., 24 hours; read-out: MIC values of in vitro antibacterial test results.
The test system of assay [16] is Staphylococcus aureus 703(MRSA). The assay can be described thus: microbe, parasite or virus in culture. The note with it: Staphylococcus aureus, MRSA, 24 h, read-out: MIC values of in vitro antibacterial test results.
The subject of assay [17] is Streptococcus pneumoniae 10351. The assay can be described thus: microbe, parasite or virus in culture. The note with it: Streptococcus pneumoniae, 10351; 37° C., 24 hours; read-out: MIC values of in vitro antibacterial test results.
Setting [18] is: 37° C., 24 hours, read-out: MIC values of in vitro antibacterial test results.

Consider `Cc1nn2c([O-])cc(-c3ccc(C#N)nc3)nc2c1-c1ccc(F)cc1F.[K+]` [Compound 27, Potassium 5-(6-cyanopyridin-3-yl)-3-(2,4-difluorophenyl)-2-methylpyrazolo[1,5-α]pyrimidin-7-olate], for which the MIC in assay [1] was below 100 µg/mL; in assay [2] it was below 100 µg/mL; in [3], below 150 µg/mL; in assay [4] it was below 150 µg/mL; in [5], below 150 µg/mL; in assay [6], above 150 µg/mL. For the same compound, the MIC in [7] is above 150 µg/mL; in [8], below 100 µg/mL; in [9] it was below 100 µg/mL; in assay [10], above 150 µg/mL; in assay [11], below 100 µg/mL; in assay [12], below 100 µg/mL. Further, the MIC in assay [13] (read-out: MIC values (μM)) was below 100 µg/mL; in assay [13] (setting [18]), below 100 µg/mL; in [14], below 150 µg/mL; in [15], below 100 µg/mL; in assay [16], below 100 µg/mL; in assay [17] it was below 100 µg/mL.
`Cc1nn2c([O-])cc(-c3ccc([O-])cc3)nc2c1-c1ccc(F)cc1F.[Na+].[Na+]` [Compound 6]: the MIC was below 100 µg/mL in assay [1]; below 100 µg/mL in assay [2]; above 150 µg/mL in assay [3]; below 150 µg/mL in assay [4]; above 150 µg/mL in assay [5]; above 150 µg/mL in assay [6]. Further, the MIC in [7] was below 150 µg/mL; in assay [8], below 150 µg/mL; in assay [9], below 100 µg/mL; in assay [10], below 150 µg/mL; in assay [11], below 150 µg/mL; in [12], below 100 µg/mL. Also, the MIC in assay [13] (read-out: MIC values (μM)), in [13] (setting [18]), in [14], in assay [15], in [16] and in [17] was below 100 µg/mL throughout.
Take `Cc1nn2c([O-])cc(-c3ccc(C#N)cc3)nc2c1-c1ccc(F)cc1F.[K+]` [Compound 20, Potassium 5-(4-cyanophenyl)-3-(2,4-difluorophenyl)-2-methylpyrazolo[1,5-α]pyrimidin-7-olate]: the MIC is below 100 µg/mL in assay [1]; below 100 µg/mL in assay [2]; below 150 µg/mL in [3]; below 150 µg/mL in assay [4]; below 150 µg/mL in assay [5]; above 150 µg/mL in assay [6]. The MIC in assay [7] was above 150 µg/mL; in assay [8] it was below 100 µg/mL; in assay [9] it was below 100 µg/mL; in assay [10], above 150 µg/mL; in [11], below 150 µg/mL; in [12], below 100 µg/mL. In addition, the MIC is below 150 µg/mL in [13] (setting [18]); below 150 µg/mL in assay [14]; below 100 µg/mL in assay [15]; below 100 µg/mL in [16]; below 100 µg/mL in assay [17].
As for `Cc1nn2c([O-])cc(-c3ccc(C(F)(F)F)nc3)nc2c1-c1ccc(F)cc1F.[Na+]` [Compound 14, Sodium 3-(2,4-difluorophenyl)-2-methyl-5-(6-(trifluoromethyl)pyridin-3-yl)pyrazolo[1,5-α] pyrimidin-7-olate], the MIC in assay [1] is below 100 µg/mL; in assay [2], below 100 µg/mL; in assay [3], above 150 µg/mL; in assay [4], below 150 µg/mL; in assay [5], above 150 µg/mL; in assay [6], above 150 µg/mL. Moreover, the MIC in [7] is above 150 µg/mL; in assay [8], below 150 µg/mL; in assay [9], below 100 µg/mL; in assay [10] it was above 150 µg/mL; in assay [11], below 100 µg/mL; in [12], below 100 µg/mL. The MIC in assay [13] (read-out: MIC values (μM)) is below 100 µg/mL; in assay [13] (setting [18]) it was below 100 µg/mL; in [14] it was below 150 µg/mL; in [15], below 100 µg/mL; in assay [16], below 100 µg/mL; in assay [17] it was below 100 µg/mL.
Take `Cc1nn2c([O-])cc(-c3ccc(N(C)C)cc3)nc2c1-c1ccc(F)cc1F.[K+]` [Compound 24, Potassium 3-(2,4-difluorophenyl)-5-(4-(dimethylamino)phenyl)-2-methylpyrazolo[1,5-α]pyrimidin-7-olate]: the MIC in [1] is below 100 µg/mL; in [2], below 100 µg/mL; in assay [3], below 150 µg/mL; in [4] it was below 150 µg/mL; in assay [5] it was above 150 µg/mL; in [6] it was above 150 µg/mL. Moreover, the MIC in [7] was above 150 µg/mL; in [8] it was below 100 µg/mL; in [9], below 100 µg/mL; in assay [10] it was below 150 µg/mL; in assay [11], below 150 µg/mL; in assay [12], below 100 µg/mL. For the same compound, the MIC was below 100 µg/mL in [13] (read-out: MIC values (μM)); below 100 µg/mL in [13] (setting [18]); below 150 µg/mL in assay [14]; below 100 µg/mL in assay [15]; below 100 µg/mL in assay [16]; below 100 µg/mL in assay [17].
Regarding `Cc1nn2c([O-])cc(-c3ccc(N(C)C)nc3)nc2c1-c1ccc(F)cc1F.[Na+]` [Compound 18, Sodium 3-(2,4-difluorophenyl)-5-(6-(dimethylamino)pyridin-3-yl)-2-methylpyrazolo[1,5-α]pyrimidin-7-olate], the MIC in [1] was below 150 µg/mL; in assay [2], below 100 µg/mL; in assay [3], above 150 µg/mL; in assay [4], below 150 µg/mL; in assay [5] it was above 150 µg/mL; in assay [6], above 150 µg/mL. For the same compound, the MIC in [7] is above 150 µg/mL; in [8], below 100 µg/mL; in assay [9] it was above 150 µg/mL; in assay [10] it was below 150 µg/mL; in assay [11], above 150 µg/mL; in assay [12] it was below 100 µg/mL. Further, the MIC in assay [13] (setting [18]) is above 150 µg/mL; in assay [14], below 100 µg/mL; in assay [15] it was above 150 µg/mL; in assay [16] it was below 150 µg/mL; in assay [17], above 150 µg/mL.
On to `COc1ccc(-c2cc([O-])n3nc(C)c(-c4ccc(F)cc4F)c3n2)cc1.[Na+]` [Compound 4, Sodium 3-(2,4-difluorophenyl)-5-(4-methoxyphenyl)-2-methylpyrazolo[1,5-α]pyrimidin-7-olate], for which the MIC in assay [1] was below 150 µg/mL; in [2], below 150 µg/mL; in [3], above 150 µg/mL; in [4] it was below 150 µg/mL; in [5] it was above 150 µg/mL; in [6], above 150 µg/mL. The MIC was above 150 µg/mL in assay [7]; below 150 µg/mL in assay [8]; above 150 µg/mL in assay [9]; below 150 µg/mL in [10]; above 150 µg/mL in assay [11]; below 100 µg/mL in assay [12]. Moreover, the MIC in assay [13] (setting [18]) was below 150 µg/mL; in [14] it was below 100 µg/mL; in assay [15], above 150 µg/mL; in [16], below 150 µg/mL; in assay [17] it was above 150 µg/mL.
As to `Cc1nn2c([O-])cc(-c3ccc(C(N)=O)nc3)nc2c1-c1ccc(F)cc1F.[Na+]` [Compound 32], the MIC in assay [1] is below 150 µg/mL; in [2], below 100 µg/mL; in assay [3] it was above 150 µg/mL; in assay [4], below 150 µg/mL; in assay [5], above 150 µg/mL; in assay [6] it was above 150 µg/mL. The MIC is above 150 µg/mL in assay [7]; below 100 µg/mL in [8]; above 150 µg/mL in assay [9]; below 150 µg/mL in assay [10]; below 150 µg/mL in assay [11]; below 100 µg/mL in [12]. The MIC was below 100 µg/mL in assay [13] (read-out: MIC values (μM)); below 100 µg/mL in assay [13] (setting [18]); below 100 µg/mL in assay [14]; above 150 µg/mL in assay [15]; below 150 µg/mL in [16]; above 150 µg/mL in [17].
Consider `Cc1nn2c([O-])cc(-c3ccc(C(=O)NCCN(C)C)cc3)nc2c1-c1ccc(F)cc1F.[Na+]` [Compound 31, Sodium 3-(2,4-difluorophenyl)-5-(4-((2-(dimethylamino)ethyl)carbamoyl)phenyl)-2-methylpyrazolo[1,5-α]pyrimidin-7-olate], for which the MIC is below 100 µg/mL in [1]; below 100 µg/mL in assay [2]; above 150 µg/mL in [3]; below 150 µg/mL in assay [4]; above 150 µg/mL in assay [5]; above 150 µg/mL in assay [6]. Also, the MIC in assay [7] is above 150 µg/mL; in assay [8], below 100 µg/mL; in assay [9] it was below 100 µg/mL; in assay [10], above 150 µg/mL; in assay [11], below 100 µg/mL; in assay [12] it was below 100 µg/mL. The MIC in assay [13] (read-out: MIC values (μM)) was below 100 µg/mL; in [13] (setting [18]) it was below 100 µg/mL; in [14], below 150 µg/mL; in assay [15], below 100 µg/mL; in assay [16], below 100 µg/mL; in assay [17], below 100 µg/mL.
